Patent US20160279187A1, “CALPAIN INHIBITORS FOR IBD AND COLORECTAL CANCER TREATMENT” (UNIVERSITY OF HAWAII, priority 2013, published 2016)
Where a SMILES comes first, the peptide text is derived from it. The star is where a group is joined. Cbz = O=C(OCc1ccccc1)*; CH2F = FC*

Columns and labels:
m-calpain = biological target: T1, m-calpain (Homo sapiens, UniProt P17655); conditions: on-target; cited from earlier work
T1 sequence (P17655 1-700): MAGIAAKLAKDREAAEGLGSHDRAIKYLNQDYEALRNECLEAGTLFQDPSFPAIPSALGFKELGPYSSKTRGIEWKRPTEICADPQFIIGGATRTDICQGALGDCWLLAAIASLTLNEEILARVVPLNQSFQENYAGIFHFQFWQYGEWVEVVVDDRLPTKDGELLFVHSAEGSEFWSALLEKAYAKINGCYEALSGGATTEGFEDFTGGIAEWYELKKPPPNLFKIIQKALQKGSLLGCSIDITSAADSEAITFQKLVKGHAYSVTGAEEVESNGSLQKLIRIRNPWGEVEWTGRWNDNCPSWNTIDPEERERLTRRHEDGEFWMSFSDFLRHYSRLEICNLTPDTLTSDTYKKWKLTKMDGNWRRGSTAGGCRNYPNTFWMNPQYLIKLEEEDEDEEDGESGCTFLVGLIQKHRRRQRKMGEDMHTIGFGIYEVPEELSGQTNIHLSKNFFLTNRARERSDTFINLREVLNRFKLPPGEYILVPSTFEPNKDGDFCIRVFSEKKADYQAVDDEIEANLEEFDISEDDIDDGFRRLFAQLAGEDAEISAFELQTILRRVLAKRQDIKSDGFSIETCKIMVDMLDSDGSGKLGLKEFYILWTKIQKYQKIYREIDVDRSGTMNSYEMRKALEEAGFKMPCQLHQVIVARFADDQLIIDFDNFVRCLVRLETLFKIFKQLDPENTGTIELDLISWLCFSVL
T1 sequence (P04632 1-268 partner): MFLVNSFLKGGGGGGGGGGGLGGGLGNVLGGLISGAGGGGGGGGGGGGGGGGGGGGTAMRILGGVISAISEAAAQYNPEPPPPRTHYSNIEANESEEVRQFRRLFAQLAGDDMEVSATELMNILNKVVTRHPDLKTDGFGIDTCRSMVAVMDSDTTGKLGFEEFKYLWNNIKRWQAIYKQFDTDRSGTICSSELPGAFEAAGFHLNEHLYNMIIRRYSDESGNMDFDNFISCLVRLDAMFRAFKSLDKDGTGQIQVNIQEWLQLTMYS

[1] = system: AOM/DSS induced colitis/CAC; test: AOM/DSS induced colitis/CAC model; assay type: in vivo, C57BL/6J mice; conditions: for CAC pathology (blinded 4-point histological score) / total tumor volume (in words): day 63, vs vehicle control
Description: A mice colony generated from C57BL/6J mice (Jackson Laboratories) was maintained in the University of Hawaii vivarium. The mouse AOM/DSS induced colitis/CAC model was adapted from a previously described protocol (Fenouille, N. et al. J. Pathol. 227, 118-129, 2012). In brief, 8-10 wk old male mice were injected with AOM (A5486, Sigma) (12 mg/kg) on day 0 and were then treated with three 5 day cycles of 2% DSS (CAS#9011-18-1; MP Biomedicals, Santa Ana, Calif.) in drinking water alternated with regular water over 63 days. Mice in the intervention group were interperitonal injected 5 days per week with 0.75 mg/kg calpain-2 inhibitor (Calpain Inhibitor IV, zLLY-CH2F; Millipore EMD part number 208724) beginning on day 8 and then throughout the entire protocol. Control mice were injected with AOM on day 0 and received regular drinking water throughout the protocol. All animal protocols were approved by the University of Hawaii Institutional Animal Care and Use Committee.
Bone marrow derived macrophages (BMDM) were prepared as previously described by methods known to those skilled in the art. On day 5 of culture, 2×10^6 BMDM were seeded in 6-well plates and the following day were primed for 18 h with TNFα (20 ng/mL), followed by 1 h stimulation with E. faecalis (1 μg/mL; ATCC). Stimulation with E. faecalis was conducted in the presence of the zLLY-CH2F calpain-2 inhibitor (20 μg/mL) or DMSO as a control. Media was removed from treated BMDM, centrifuged at 300×g for 5 min and supernatent analyzed using the Cytometric Bead Array Mouse Inflammation Kit (BD Biosciences, San Jose, Calif.). Cytokine data were analyzed using Flowjo software (Ashland, Oreg.) and GraphPad Prism version 4.0 (GraphPad, La Jolla, Calif.). Cell pellets were lysed and analyzed for IκB and NFκB by Western blot as previously described (Miyazaki, T. et al. Journal of Atherosclerosis and Thrombosis 20, 228-237, 2013). In other experiments, mouse CT-26.WT and human HT-29 colon cancer cells were plated in 96-well plates at 10^3 cells/well with 20 μg/mL inhibitor or DMSO, followed by analyses for IκB and NFκB by Western blot as described above for BMDM. For proliferation assays, fresh media with 20 μg/mL inhibitor or DMSO were added every 2 d. Each day 4 wells were quantified using Celltiter MTS reagent (Promega) and the resulting signal was used to generate a proliferation curve. Calpain activity was measured using a Calpain activity assay kit (BioVision, Inc., Milpitas, Calif.) as previously described. Colons were harvested on day 4 and calpain activity measured. Enzyme-linked immunosorbant assay (ELISA) analyses of cecum hemoglobin has been previously described (Miyazaki, T. et al. Journal of Atherosclerosis and Thrombosis 20, 228-237, 2013).
On day 63, colons were dissected, cut longitudinally, and then were spread out on clear plastic. The colons were washed with PBS using transfer pipettes and images captured using an Infinity 2 microscope mounted camera (Lumenara, Madrid, Spain) in line with a Stemi 2000-C dissecting scope (Zeiss, Jena, Germany). Separate images were assembled into continuous colon images using Photoshop software (Adobe Systems Inc.). For histology, colon tissues were washed with PBS and fixed in 10% buffered formalin. Standard H&E staining of paraffin-embedded tissue samples was conducted as previously described (Leloup, L. & Wells, A., Expert Opinion on Therapeutic Targets 15, 309-323, 2011). Five H&E stained sections from each mouse were blindly scored for colitis pathology as previously described (Liu, T., Mendes, D. E. & Berkman, C. E. Int. J. Oncol. 44, 467-472, 2014). […]

SMILES: CC(C)C[C@H](NC(=O)OCc1ccccc1)C(=O)N[C@@H](CC(C)C)C(=O)N[C@@H](Cc1ccc(O)cc1)C(=O)CF [zLLY-CH2F, Z-LLY-CH2F] (Cbz-Leu-Leu-Tyr-CH2F)
- k2 rate constant, irreversible inhibition of m-calpain (m-calpain): about 28,900 M-1 s-1
- weight recovery after each administration of DSS ([1]; 0.75 mg/kg i.p. from day 8, vs vehicle control): significant increase
- average number of tumors/mouse ([1]; day 63): 2 tumors/mouse
- hemoglobin in cecums by ELISA (bloody diarrhea) ([1]; day 63, 0.75 mg/kg i.p., vs vehicle control): significantly lower
- total tumor volume reduced by ([1]; day 63, i.p. 5 days on/2 days off from day 8, vs vehicle control): 70%
- CAC pathology (blinded 4-point histological score) [1]: significantly lower
- total tumor volume (in words) [1]: significantly lower
- CAC pathology (blinded 4-point histological score) ([1]; listed as calpain-2 inhibitor): significantly alleviated
- total tumor volume (in words) ([1]; listed as calpain-2 inhibitor): significant reduction
- total tumor volume (in words) ([1]; listed as m-calpain inhibitor): very significant tumor reduction
- colitis pathology and inflammatory infiltration (histology) ([1]; day 63 colon, vs vehicle control): significant decrease
